{"source": "patent US12275686B2", "about": "“NO donor compound, preparation method thereof, pharmaceutical composition comprising same, and use thereof” (SOUTHEAST UNIVERSITY, priority 2022, dated 2025)", "key": {"H9c2 cells [1]": {"system": "H9c2 cells", "assay": "NO release level in H9c2 cells under normoxia or hypoxia, Griess method", "assay_type": "cell-based", "conditions": "for NO release (%) / NO release amount (%): H9c2 cells, 4 h; for NO release (%): hypoxia (1% O2); for NO release amount (%): normoxia (21% O2)", "procedure": "H9c2 cells were revived, cultured with DMEM medium, and placed in a carbon dioxide incubator to allow the cells to adhere to the wall for growth. After the cells grew to reach an appropriate density, cells were inoculated in a multi-well plate and placed in the carbon dioxide incubator for culture for 24 h at 37° C., 5% CO2, and saturated humidity until the cells adhered to the wall, the supernatant was discarded, and 2 mL of fresh DMEM medium was added. Then, a certain concentration (5, 10, 15 μM) of compounds and the reference drug of isosorbide dinitrate were added. After culturing in a normoxic incubator (37° C., 21% O2) or an anoxic incubator (37° C., 1% O2) for 4 h, the supernatant was removed, and the cells in the multi-well plate were collected in 1.5 mL centrifuge tubes and centrifuged at 1000 rpm for 5 min, the supernatant was discarded, 1 mL of PBS was added into the centrifuge tubes to resuspend the cells, and the cells were centrifuged again, the PBS was discarded. 100 μL of cell lysis buffer (special for NO measurement) was added to the centrifuge tubes, placed on ice for half a minute, and then centrifuged for 5 min at 4° C. and 13300 rpm, and the supernatant was collected. 50 μL of the supernatant was taken in a 96-well plate, three parallel groups were set for each sample, and 50 μL of Griess reagent I and 50 μL of Griess reagent II were added in sequence. The OD value of each well was measured at 540 nm with a full-wavelength microplate reader, and the NO concentration was calculated using the standard curve, as shown in Tables 1 and 2."}, "[2]": {"system": "mTORC1 and TSC2-P proteins", "assay": "Expression level of myocardial injury marker proteins in myocardial hypoxia mouse, Western blot", "assay_type": "in vivo", "conditions": "hypoxia model mouse pretreated with 20 mg/kg, FIG. 3", "text": "Western Blot gel preparation kit (Biyuntian Biotechnology Co., Ltd., Shanghai), BCA detection kit for protein quantification (Biyuntian Biotechnology Co., Ltd., Shanghai), ionization buffer, wet transfer solution, primary antibody (anti-TSC2-P, Abgent, 1:1000, A-AP3825a; anti-mTORC1, Abcam, 1:1000, ab120224; anti-GAPDH, Bioworld Technology, 1:500, AP0063), secondary antibody (Goat Anti-Rabbit IgG (H+L) HRP, 1:3000, Bioworld Technology, BS13278), 6-8-week-old male Kunming mouse.\nThe changes of protein expression levels are analyzed based on Western Blot bands.\n• (1) Mouse heart tissue protein was extracted and centrifuged at 12,000 rpm for 15 min to collect the protein, the protein was quantified using a BCA kit, and added to boiling water in loading buffer and cook for 5 min for later use; • (2) SDS-PAGE gel was prepared and the sample was loaded to separate protein bands; • (3) After transferring the protein bands to the PVDF membrane, the membrane was blocked with milk to incubate primary and secondary antibodies in sequence. The protein bands were visualized using a chemiluminescence developer to analyze the changes of protein expression in each group, as shown in FIG. 3."}, "[3]": {"system": "heart of mouse hypoxia model", "assay": "NO release level in the heart of mouse hypoxia model, NO detection kit", "assay_type": "in vivo", "conditions": "mouse hypoxia model (85 mg/kg isoproterenol), 20 mg/kg intraperitoneally before modeling, FIG. 2", "text": "NO detection kit (Biyuntian Biotechnology Co., Ltd., Shanghai), heart tissue homogenate of hypoxia modeling and drug-given mouse, and blank control group mouse, and 6-8-week-old male Kunming mouse.\nNO has chemical activity and is rapidly converted into NO3^− and NO2^− in the body, and NO2^− is further converted into NO3^−. NO^3− is reduced to NO2^− […], NO2^− has characteristic absorption at 540 nm, the absorbance is detected at 540 nm by a microplate reader, and the NO concentration is calculated using a standard curve.\n• (1) Hypoxia model (85 mg/kg isoproterenol), the drug-given group was intraperitoneally injected with 20 mg/kg compound I1 before hypoxia modeling; • (2) Cardiac tissue homogenate protein was obtained by centrifugation at 12,000 rpm for 15 min; • (3) The working solution in the NO detection kit was prepared, the working solution was added to each group of proteins, after incubation, and each group of proteins was detected with an microplate reader to analyze the NO content in each group, as shown in FIG. 2."}, "H9c2 cells [4]": {"system": "H9c2 cells", "assay": "Vitality of H9c2 cells under normoxia or hypoxia (CCK8)", "assay_type": "cell-based", "conditions": "4 h; for improvement on the cell viability: normoxic condition, FIG. 1A", "procedure": "The cells were washed twice with 5 mL PBS, 1 mL trypsin was added to digest the monolayer cultured H9c2 cells, a single cell suspension was prepared with serum-containing culture medium, and 5000-10000 cells per well were inoculated in a 96-well culture plate. The volume of culture medium per well is 100 μL, and the edge wells are filled with sterilized pure water. The culture plate was moved into a carbon dioxide incubator for culture for 24 h at 37° C., 5% CO2, and saturated humidity until the cells adhere to the wall. 100 μL culture medium in the well was aspirated, 50 μL fresh culture medium was added into the well, and different concentrations of compounds and reference drug isosorbide dinitrate were given respectively to the well. 50 μL drug was added to each well, 3 parallel groups and 1 normoxic group without drug addition as control were set, and concentration gradient of the drug is 10, 1, 0.1, 0.01, 0.001 μM. The normoxic group was incubated in a normal incubator at 5% CO2 and 37° C. for 4 h; and the hypoxic group was incubated in a hypoxic incubator (concentration of 02≤1%) at 37° C. for 4 h. After the culture was completed, 10 μL CCK8 reagent was added to each well and the normoxic group and the hypoxic group continued to be cultured in a normoxic incubator for 4 h, and the culture was terminated. The absorbance of each well was measured at 450 nm with a microplate reader to calculate the cell survival rate of cells at different concentrations, as shown in FIGS. 1A and 1B."}}}
{"smiles": "CN(N=O)c1ccc(OC(=O)OCc2ccc([N+](=O)[O-])cc2)cc1", "note": "[Compound I1, 4-((methylnitroso)amino) phenyl (4-nitrobenzyl) carbonate]", "values": [{"measurement": "NO release (%)", "setting": "H9c2 cells [1]; compound 5 μM", "result": 25.24, "unit": "%"}, {"measurement": "NO release (%)", "setting": "H9c2 cells [1]; compound 10 μM", "result": 24.38, "unit": "%"}, {"measurement": "NO release (%)", "setting": "H9c2 cells [1]; compound 15 μM", "result": 20.15, "unit": "%"}, {"measurement": "NO release amount (%)", "setting": "H9c2 cells [1]; compound 5 μM", "result": 0.24, "unit": "%"}, {"measurement": "NO release amount (%)", "setting": "H9c2 cells [1]; compound 10 μM", "result": 0.84, "unit": "%"}, {"measurement": "NO release amount (%)", "setting": "H9c2 cells [1]; compound 15 μM", "result": 0.16, "unit": "%"}, {"measurement": "anti-myocardial hypoxic damage effect", "setting": "[2]", "result": "excellent anti-myocardial hypoxic damage effect"}, {"measurement": "expression of mTORC1 in the hearts", "setting": "[2]; Western blot", "result": "restored to near a level of the normal group"}, {"measurement": "NO level in the heart", "setting": "[3]", "result": "significantly higher than that of the other two groups"}]}
{"smiles": "CN(N=O)c1ccc(OC(=O)OCc2ccc([N+](=O)[O-])cc2Cl)cc1", "note": "[Compound I2, 4-((methylnitroso)amino) phenyl (2-chloro-4-nitrobenzyl) carbonate]", "values": [{"measurement": "NO release (%)", "setting": "H9c2 cells [1]; compound 5 μM", "result": 34.75, "unit": "%"}, {"measurement": "NO release (%)", "setting": "H9c2 cells [1]; compound 10 μM", "result": 30.96, "unit": "%"}, {"measurement": "NO release (%)", "setting": "H9c2 cells [1]; compound 15 μM", "result": 27.37, "unit": "%"}, {"measurement": "NO release amount (%)", "setting": "H9c2 cells [1]; compound 5 μM", "result": 1.58, "unit": "%"}, {"measurement": "NO release amount (%)", "setting": "H9c2 cells [1]; compound 10 μM", "result": 3.34, "unit": "%"}, {"measurement": "NO release amount (%)", "setting": "H9c2 cells [1]; compound 15 μM", "result": 0.93, "unit": "%"}]}
{"smiles": "Cc1cc([N+](=O)[O-])ccc1COC(=O)Oc1ccc(N(C)N=O)cc1", "note": "[Compound I3, 4-((methylnitroso)amino) phenyl (2-methyl-4-nitrobenzyl) carbonate]", "values": [{"measurement": "NO release (%)", "setting": "H9c2 cells [1]; compound 5 μM", "result": 40.58, "unit": "%"}, {"measurement": "NO release (%)", "setting": "H9c2 cells [1]; compound 10 μM", "result": 45.42, "unit": "%"}, {"measurement": "NO release (%)", "setting": "H9c2 cells [1]; compound 15 μM", "result": 43.21, "unit": "%"}, {"measurement": "NO release amount (%)", "setting": "H9c2 cells [1]; compound 5 μM", "result": 0.43, "unit": "%"}, {"measurement": "NO release amount (%)", "setting": "H9c2 cells [1]; compound 10 μM", "result": 0.92, "unit": "%"}, {"measurement": "NO release amount (%)", "setting": "H9c2 cells [1]; compound 15 μM", "result": 0.32, "unit": "%"}]}
{"smiles": "CN(N=O)c1ccc(OC(=O)OCc2ccccc2[N+](=O)[O-])cc1", "note": "[Compound I4, 4-((methylnitroso)amino) phenyl (2-nitrobenzyl) carbonate]", "values": [{"measurement": "NO release (%)", "setting": "H9c2 cells [1]; compound 5 μM", "result": 20.78, "unit": "%"}, {"measurement": "NO release (%)", "setting": "H9c2 cells [1]; compound 10 μM", "result": 20.62, "unit": "%"}, {"measurement": "NO release (%)", "setting": "H9c2 cells [1]; compound 15 μM", "result": 18.33, "unit": "%"}, {"measurement": "NO release amount (%)", "setting": "H9c2 cells [1]; compound 5 μM", "result": 1.02, "unit": "%"}, {"measurement": "NO release amount (%)", "setting": "H9c2 cells [1]; compound 10 μM", "result": 2.35, "unit": "%"}, {"measurement": "NO release amount (%)", "setting": "H9c2 cells [1]; compound 15 μM", "result": 0.98, "unit": "%"}, {"measurement": "improvement on the cell viability", "setting": "H9c2 cells [4]; 1 μM", "result": "slight improvement on the cell viability"}]}
{"smiles": "CN(N=O)c1ccc(OC(=O)OCc2ccc(Cl)cc2[N+](=O)[O-])cc1", "note": "[Compound I5, 4-((methylnitroso)amino) phenyl (2-nitro-4-chlorobenzyl) carbonate]", "values": [{"measurement": "NO release (%)", "setting": "H9c2 cells [1]; compound 10 μM", "result": 0.96, "unit": "%"}, {"measurement": "NO release amount (%)", "setting": "H9c2 cells [1]; compound 10 μM", "result": 0.15, "unit": "%"}]}
{"smiles": "CN(N=O)c1ccc(OC(=O)OCc2ccc(Br)cc2[N+](=O)[O-])cc1", "note": "[Compound I6, 4-((methylnitroso)amino) phenyl (2-nitro-4-bromobenzyl) carbonate]", "values": [{"measurement": "NO release (%)", "setting": "H9c2 cells [1]; compound 10 μM", "result": 0.94, "unit": "%"}, {"measurement": "NO release amount (%)", "setting": "H9c2 cells [1]; compound 10 μM", "result": 0.17, "unit": "%"}]}
{"smiles": "Cc1ccc(COC(=O)Oc2ccc(N(C)N=O)cc2)c([N+](=O)[O-])c1", "note": "[Compound I7, 4-((methylnitroso)amino) phenyl (2-nitro-4-methylbenzyl) carbonate]", "values": [{"measurement": "NO release (%)", "setting": "H9c2 cells [1]; compound 10 μM", "result": 1.83, "unit": "%"}, {"measurement": "NO release amount (%)", "setting": "H9c2 cells [1]; compound 10 μM", "result": 0.12, "unit": "%"}]}
{"smiles": "CN(N=O)c1ccc(OC(=O)OCc2cc(Cl)ccc2[N+](=O)[O-])cc1", "note": "[Compound I8, 4-((methylnitroso)amino) phenyl (2-nitro-5-chlorobenzyl) carbonate]", "values": [{"measurement": "NO release (%)", "setting": "H9c2 cells [1]; compound 10 μM", "result": 0.93, "unit": "%"}, {"measurement": "NO release amount (%)", "setting": "H9c2 cells [1]; compound 10 μM", "result": 0.27, "unit": "%"}]}
{"smiles": "Cc1ccc([N+](=O)[O-])c(COC(=O)Oc2ccc(N(C)N=O)cc2)c1", "note": "[Compound I9, 4-((methylnitroso)amino) phenyl (2-nitro-5-methylbenzyl) carbonate]", "values": [{"measurement": "NO release (%)", "setting": "H9c2 cells [1]; compound 10 μM", "result": 0.95, "unit": "%"}, {"measurement": "NO release amount (%)", "setting": "H9c2 cells [1]; compound 10 μM", "result": 0.23, "unit": "%"}]}
{"smiles": "O=[N+]([O-])O[C@H]1CO[C@H]2[C@@H]1OC[C@H]2O[N+](=O)[O-]", "note": "[Isosorbide dinitrate, isosorbide dinitrate]", "values": [{"measurement": "NO release amount", "setting": "H9c2 cells [1]; hypoxia condition, different concentrations (5, 10, 15 μM)", "result": "less than that under the normoxia condition"}, {"measurement": "viability of hypoxic cells", "setting": "H9c2 cells [4]; hypoxic condition (O2≤1%), 0.001-10 μM, FIG. 1B", "result": "a certain improvement on the cell viability at high concentration"}, {"measurement": "improvement on the cell viability", "setting": "H9c2 cells [4]; 0.001-10 μM", "result": "does not improve the cell viability"}]}
